From US3988453A, “Novel phenothiazines as neuroleptics” (Roussel-UCLAF, priority 1974, dated 1976) come the findings set out here.

Where a name gives a salt, the structure may show the parent alone. Read-outs that look alike come from different tables or passages of the source.

For experiment [1], the system named is histamine hydrochloride lethality. As to the kind of experiment: antihistaminic activity (protection against lethal histamine dose). The format is in vivo, guinea pigs. The note with it: guinea pig, oral 10 mg/kg. As for the experimental part:
E. antihistaminic Activity
This test was effected on guinea pigs which received orally a single dose of 10 mg/kg of the test product and then a intraveinous injection of 0.8 mg/kg of histamine hydrochloride 1 hour or 24 hours thereafter. This histamine dose is the minimum lethal dose for 100% of the animals within about 3 minutes and after 10 minutes, any surviving animals were considered to be protected. Each product was rated to see if 50% of the animals were alive at this dose and the values of Table IV show at least 50% protected by + and less than 50% protected by 0.

Experiment [2] has as its system stereotypes provoked by apomorphine. As to the kind of experiment: antagonism to stereotypes provoked by apomorphine. The format is in vivo, male rats. The note with it: rat, oral, read-out: ED50 (DE50), apomorphine sterotypes. The protocol: A. antagonism to stereotypes provoked by apomorphine
This test was conducted on groups of 5 male rats in individual cages with the procedure of Janssen et al [Arzn. Forsch., Vol. 15 (1965), p. 104-117 and Vol. 17 (1967), p. 841-854]. Each rat orally received the test compound and then, at variable times, an intraveinous injection of 1.5 mg of apomorphine hydrochloride in the veins of the penis. The times of injection were 1 hour, 24 hours, 2 days, 3 days or 4 days after the test product administration and the rats were studied during 1 minute after 5,10 and 15 minutes after the injection and the stereotype movements of the jaws spheres were evaluated for their degree of intensity on a scale for 0 to 3 /Boissier et al, Therapie, Vol. 25 (1970), p. 939-949/. The ED50 was determined at the maximum of the effect for the time considered that is to say the dose reducing the symptoms by 50% in the treated animals as compared to control animals and the results are reported in Table I.

In experiment [3] the test system is toxicity provoked by amphetamine. Nature of the experiment: antagonism to toxicity provoked by amphetamine. Format: in vivo, male mice. The note with it: mouse, oral, read-out: ED50 (DE50), amphetaminic toxicity. As for the experimental part:
B. antagonism to toxicity provoked by amphetamine
This test was effect on groups of 10 male mice grouped in crystallizers with a 20 cm diameter and a 9 cm height closed with a grilled lid. Each mouse orally received a determined dose of the test product and at different times a single intraperitoneal dose of dexamphetamine sulfate. The injection was effected 1 hour, 24 hours or 2,3,4 or 7 days after the administration of the test compound and the mortality for each group was determined 24 hours after the injection. The ED50, the dose at which the toxicity of dexamphetamine sulphate was reduced by 50%, was determined and the results are reported in Table I.

Setting [4] is: apomorphine 1 h after test product.
[5] abbreviates: apomorphine 24 h after test product.
The mark [6] stands for this setting: dexamphetamine 1 h after test product.
Setting [7] is: dexamphetamine 24 h after test product.
[8] abbreviates: 48 h, apomorphine 2 d after test product.
Where [9] appears, read: 72 h, apomorphine 3 d after test product.
The mark [10] stands for this setting: 96 h, apomorphine 4 d after test product.
Setting [11] is: 48 h, dexamphetamine 2 d after test product.
[12] abbreviates: 72 h, dexamphetamine 3 d after test product.
The mark [13] stands for this setting: 96 h, dexamphetamine 4 d after test product.
Where [14] appears, read: 168 h, dexamphetamine 7 d after test product.

On to `c1ccc2c(c1)Sc1ccccc1N2CCCN1CCC(c2c[nH]c3ccccc23)CC1` [Example 1, 4-(3'-indolyl)-1-[γ-(10"-phenothiazinyl)-propyl]-piperidine.HCl], for which the Protection against histamine was 0 (less than 50% protected) in experiment [1] (after 1 hour) and “+ (at least 50% protected)” in experiment [1] (after 24 hours). Moreover, the ED50 is greater than 50 mg/kg in experiment [2] (setting [4]), 35 mg/kg in experiment [2] (setting [5]), less than 10 mg/kg in experiment [3] (setting [6]) and less than 10 mg/kg in experiment [3] (setting [7]).

Turning to `COc1ccc2[nH]cc(C3CCN(CCCN4c5ccccc5Sc5ccc(C(F)(F)F)cc54)CC3)c2c1` [Example 3, 4-(5'-methoxy-3'-indolyl)-1-[γ-(2"-trifluoromethyl-10"-phenothiazinyl)-propyl]-piperidine hydrochloride], the ED50 in experiment [2] (setting [8]) was less than 10 mg/kg; in experiment [2] (setting [9]), 12 mg/kg; in experiment [2] (setting [10]), 20 mg/kg; in experiment [2] (setting [4]), greater than 50 mg/kg; in experiment [2] (setting [5]) it was less than 10 mg/kg; in experiment [3] (setting [11]) it was less than 10 mg/kg. The ED50 in experiment [3] (setting [12]), in experiment [3] (setting [13]), in experiment [3] (setting [6]) and in experiment [3] (setting [7]) was less than 10 mg/kg throughout.

For `COc1ccc2c(C3CCN(CCCN4c5ccccc5Sc5ccc(C(F)(F)F)cc54)CC3)c(C)[nH]c2c1` [Example 4, 4-(2'-methyl-6'-methoxy-3'-indolyl)-1-[γ-(2"-trifluoromethyl-10"-phenothiazinyl)-propyl]-piperidine hydrochloride], the ED50 in experiment [2] (setting [8]) was 9 mg/kg; in experiment [2] (setting [9]), 16 mg/kg; in experiment [2] (setting [10]) it was 25 mg/kg; in experiment [2] (setting [4]) it was greater than 50 mg/kg; in experiment [2] (setting [5]) it was 9 mg/kg; in experiment [3] (setting [11]) it was less than 10 mg/kg. Further, the ED50 is 9 mg/kg in experiment [3] (setting [12]); 9 mg/kg in experiment [3] (setting [13]); 50 mg/kg in experiment [3] (setting [14]); 10 mg/kg in experiment [3] (setting [6]); less than 10 mg/kg in experiment [3] (setting [7]).

For the compound `Clc1ccc2c(c1)N(CCCN1CCC(c3c[nH]c4ccccc34)CC1)c1ccccc1S2` [Example 5, 4-(3'-indolyl)-1'-[γ-(2"-chloro-10"-phenothiazinyl)-propyl]-piperidine hydrochloride], the Protection against histamine result in experiment [1] (after 1 hour) and in experiment [1] (after 24 hours) was “+ (at least 50% protected)” each time. In addition, the ED50 in experiment [2] (setting [8]) was 12 mg/kg; in experiment [2] (setting [9]), 27 mg/kg; in experiment [2] (setting [4]) it was greater than 50 mg/kg; in experiment [2] (setting [5]) it was less than 10 mg/kg; in experiment [3] (setting [11]), less than 10 mg/kg; in experiment [3] (setting [12]), 10 mg/kg. Besides, the ED50 in experiment [3] (setting [13]) was 17 mg/kg; in experiment [3] (setting [6]) it was 16 mg/kg; in experiment [3] (setting [7]) it was less than 10 mg/kg.

Turning to `COc1ccc2c(c1)N(CCCN1CCC(c3c[nH]c4ccccc34)CC1)c1ccccc1S2` [Example 6, 4-(3'-indolyl)-1-[γ-(2"-methoxy-10"-phenothiazinyl)-propyl]-piperidine hydrochloride], the Protection against histamine is listed as 0 (less than 50% protected) in experiment [1] (after 1 hour) and “+ (at least 50% protected)” in experiment [1] (after 24 hours). For the same compound, the ED50 in experiment [2] (setting [8]) was 45 mg/kg; in experiment [2] (setting [4]), greater than 50 mg/kg; in experiment [2] (setting [5]), less than 10 mg/kg; in experiment [3] (setting [11]), 10 mg/kg; in experiment [3] (setting [6]), less than 10 mg/kg; in experiment [3] (setting [7]) it was less than 10 mg/kg.

Turning to `CC(CN1CCC(c2c[nH]c3ccccc23)CC1)CN1c2ccccc2Sc2ccc(C(F)(F)F)cc21` (stereo not drawn) [Example 7, 4-(3'-indolyl)-1-[β-methyl-γ-(2"-trifluoromethyl-10"-phenothiazinyl)-propyl]-piperidine hydrochloride], the Protection against histamine in experiment [1] (after 1 hour) was 0 (less than 50% protected); in experiment [1] (after 24 hours), “+ (at least 50% protected)”. Moreover, the ED50 in experiment [2] (setting [8]) is 10 mg/kg; in experiment [2] (setting [9]), less than 10 mg/kg; in experiment [2] (setting [10]), 12 mg/kg; in experiment [2] (setting [4]), greater than 20 mg/kg; in experiment [2] (setting [5]), 10 mg/kg; in experiment [3] (setting [11]) it was less than 10 mg/kg. Besides, the ED50 in experiment [3] (setting [12]) is 13 mg/kg; in experiment [3] (setting [13]), less than 10 mg/kg; in experiment [3] (setting [14]), 19 mg/kg; in experiment [3] (setting [6]) it was greater than 20 mg/kg; in experiment [3] (setting [7]), less than 10 mg/kg.

As to `COc1ccc2c(c1)N(CC(C)CN1CCC(c3c[nH]c4ccccc34)CC1)c1ccccc1S2` (stereo not drawn) [Example 8, 4-(3'-indolyl)-1-[γ-(2"-methoxy-10"-phenothiazinyl)-β-methylpropyl]-piperidine hydrochloride], the Protection against histamine is recorded as 0 (less than 50% protected) in experiment [1] (after 1 hour) and “+ (at least 50% protected)” in experiment [1] (after 24 hours). The ED50 in experiment [2] (setting [8]) is 12 mg/kg; in experiment [2] (setting [9]) it was 30 mg/kg; in experiment [2] (setting [4]), greater than 50 mg/kg; in experiment [2] (setting [5]) it was less than 10 mg/kg; in experiment [3] (setting [11]) it was less than 10 mg/kg; in experiment [3] (setting [12]), 18 mg/kg. Also, the ED50 in experiment [3] (setting [6]) and in experiment [3] (setting [7]) was less than 10 mg/kg throughout.

The ED50 is the dose at which the effect has come halfway, by size or by number of responders.
